Assay results as given in patent US7160545B2, “HLA-A24 binding peptides of enhancer of zeste homolog 2” (Green Peptide Co., Ltd., priority 2005, dated 2007).
Like-named read-outs stand apart in the source and are kept apart here. No end group written: not given here.

Experiments:
LNCaP-A24 cells [1] = test: Inhibition of the cytotoxicity of EZH2 peptide-stimulated PBMCs by antibodies; type: cell-based, human; settings: mAb 20 μg/ml; effector/target ratio 10/1; patients 17, 18, 21
Experimental: We further tried to confirm which effector cells were responsible for the cytotoxicity. EZH2 peptide-stimulated PBMCs from patients 17, 18, and 21 were tested for their cytotoxicity against the LNCaP-A24 cells. The 6-hr cytotoxicity assay was performed in the presence of the indicated monoclonal antibody (mAb). The assay was done at an effector/target ratio of 10/1. Either anti-HLA class I (W6/32: mouse IgG2a), anti-HLA-DR (L243: mouse IgG2a), anti-CD4 (Nu-Th/i: mouse IgG1), anti-CD8 (Nu-Ts/c: mouse IgG2a), or anti-CD14 (H14: mouse IgG2a) mAb was added to the wells at a dose of 20 μg/ml at the start of the assay.

LNCaP-A24 cells [2] = test: 6-hr 51Cr-release cytotoxicity of EZH2 peptide-stimulated PBMCs; type: cell-based, human; settings: LNCaP-A24 (HLA-A24^+) versus LNCaP (HLA-A24^−) and PHA-stimulated T cell blasts, PBMCs from 3 HLA-A24^+ patients
Description: To investigate HLA-A24-restricted cytotoxicity, the level of cytotoxicity against the LNCaP was compared with the level of cytotoxicity against its transfectant, LNCaP-A24, which is a subline that transfected with the HLA-A*2402 gene and express the gene stably (Yao A, Harada M, Matsueda S, Ishihara Y, Shomura H, Noguchi M, Matsuoka K, Hara I, Kamidono S, Itoh K, Identification of parathyroid hormone-related protein-derived peptides immunogenic in human histocompatibility leukocyte antigen-A24^+ prostate cancer patients, British Journal of Cancer, 91:287–296, 2004, this reference is incorporated herein by reference). All cell lines were maintained in RPMI-1640 medium (Gibco BRL, Grand Island, N.Y.) supplemented with 10% FCS.
The PBMCs from 3 HLA-A24^+ prostate cancer patients were then stimulated in vitro with the indicated EZH2 peptide, and examined for their cytotoxicity against HLA-A24^− LNCaP cells, HLA-A24^+ LNCaP-A24, and HLA-A24^+ PHA-stimulated T cell blasts. Specifically, after in vitro stimulation with the EZH2 peptides, the peptide-stimulated PBMCs were additionally cultured with 100 U/ml IL-2 for approximately 10 days in 96 round-well plates in order to obtain a sufficient number of cells to carry out a cytotoxicity assay. Then, these cells were tested for cytotoxicity against LNCaP, LNCaP-A24, and PHA-stimulated T cell blasts by a 6-hr ^51Cr-release assay. Two thousand ^51Cr-labeled cells per well were cultured with effector cells in 96 round-well plates at the indicated effector/target ratios.

[3] = system: PBMCs of HLA-A24^+ prostate cancer patients; test: IFN-γ production of peptide-stimulated PBMCs against peptide-pulsed C1R-A24 cells (peptide-specific CTL assay); type: cell-based, human; settings: for Cancer patients in whom the peptide induced peptide-specific CTLs: HLA-A24^+ prostate cancer patients; for IFN-γ production: day 15, C1R-A24 cells pulsed with corresponding peptide, HIV peptide background subtracted, mean of 2 wells
Experimental: The assay for the detection of peptide-specific CTLs in PBMCs was performed according to a previously reported method (21). In brief, PBMCs (1×10^5 cells/well) were incubated with 10 μg/ml of each peptide in a U-bottom-type 96-well microculture plate (Nunc, Roskilde, Denmark) at a volume of 200 μl of culture medium. The culture medium consisted of 45% RPMI-1640, 45% AIM-V medium (Gibco BRL, Grand Island, N.Y.), 10% FCS, 100 U/ml of interleukin (IL)-2, and 0.1 mM MEM nonessential amino acid solution (Gibco BRL, Grand Island, N.Y.). Half of the culture medium was removed and replaced with new medium containing a corresponding peptide (20 μg/ml) every 3 days. On the 15th day of culture, the cultured cells were separated into 4 wells, and two of which were used for EZH2 peptide-pulsed C1R-A24 cells, and the other two of which were used for the HIV peptide-pulsed C1R-A24 cells. C1R-A24 is an HLA-A*2402-expressing subline of C1R lymphoma (Oiso M, Eura M, Katsura F, Takiguchi M, Sobao Y, Masuyama K, Nakashima M, Itoh K, Ishikawa T. A newly identified MAGE-3-derived epitope recognized by HLA-A24-restricted cytotoxic T lymphocytes. Int. J. Cancer 81: 387–394, 1999, this reference is incorporated herein by reference). After an 18-hr incubation period, the supernatants were collected and the level of IFN-γ was determined by ELISA. The EZH2-170 peptide was included in this experiment as an EZH2 peptide that was less frequently recognized by the humoral immune system.

[4] = system: IgG in the plasma of prostate cancer patients; test: ELISA for peptide-specific IgG in plasma of prostate cancer patients; type: binding, human; settings: for Humoral response, Total (IgG-positive patients/patients tested): positive when OD more than 0.04; for IgG reactive to peptide, OD: 1:100-diluted plasma, cut-off OD 0.04, — = not positive
Experimental: Peptide-specific IgG levels in the plasma were measured by ELISA using a previously reported method (20). In brief, peptide (20 μg/well)-immobilized plates were blocked with Block Ace (Yukijirushi, Tokyo, Japan) and washed with 0.05% Tween20-PBS, after which 100 μl/well of plasma sample diluted with 0.05% Tween20-Block Ace was added to the plates. After a 2-hr incubation at 37° C., the plates were washed and further incubated for 2 hr with a 1:1000-diluted rabbit anti-human IgG (γ-chain-specific) (DAKO, Glostrup, Denmark). The plates were washed, and then 100 μl of 1:100-diluted goat anti-rabbit IgG-conjugated horseradish peroxidase (EnVision; DAKO) was added to each well, and the plates were incubated at room temperature for 40 min. After the plates were washed once, 100 μl/well of tetramethyl benzidine substrate solution (KPL, Guildford, UK) was added, and the reaction was stopped by the addition of 1 M phosphoric acid. The values are shown as optical density (OD) units/ml. To confirm the specificity of IgG to the indicated EZH2 peptide, sample plasma was cultured with plates coated with either the corresponding EZH2 peptide or an irrelevant EZH2 peptide. Thereafter, the levels of EZH2 peptide-specific IgG in the resulting supernatant were determined by ELISA.
As shown above, we investigated whether IgG reactive to each of the 11 EZH2-derived peptides could be detected in the plasma of 10 prostate cancer patients. These patients were not limited to the HLA-A24^+ subjects, because peptide-specific IgG was not restricted to MHC class I molecules, as reported previously (22). The mean+2 SD value (OD: 0.04), which was determined as the level of IgG reactive to the HIV peptide in plasma from HIV-negative healthy donors, was used as a cut-off value at a 1:100 diluted plasma in the ELISA.

[5] = significant: p < 0.05 and >100 pg/ml of IFN-γ production

KYVGIEREM [EZH2-735] was tested, and the “Cytotoxicity against LNCaP-A24 cells on addition of anti-class I or anti-CD8 mAb” value (LNCaP-A24 cells [1]) was “significantly inhibited”, the “Cytotoxicity of peptide-stimulated PBMCs / induction of HLA-A24-restricted prostate cancer-reactive CTLs” value (LNCaP-A24 cells [2]) was “efficiently induce HLA-A24-restricted and prostate cancer-reactive CTLs” and the “Cytotoxicity of peptide-stimulated PBMCs / induction of HLA-A24-restricted prostate cancer-reactive CTLs” value (LNCaP-A24 cells [2]; listed as EZH2 735–743) was “efficiently induced HLA-A24-restricted and prostate cancer-reactive CTLs”.

In the case of “RFYIQMCYEL (Flu virus-derived peptide) [reference compound]”, the “Reactivity of peptide-stimulated PBMCs, Total (patients with significant IFN-γ production/patients tested)” value [3] is reported as 3/10.

In the case of TYYDNFCAI (EZH2 446-454) [EZH2-446], the “Humoral response, Total (IgG-positive patients/patients tested)” value ([4]; 10 prostate cancer patients) is reported as 0/10.

TYGPVFMCL [EBV, reference compound] was tested, and the “Reactivity of peptide-stimulated PBMCs, Total (patients with significant IFN-γ production/patients tested)” value [3] was 5/10.

KYKELTEQQL (EZH2 243-252) [EZH2-243] was tested, and the “Patients in whose plasma IgG reactive to the peptide was detected” value ([4]; 10 prostate cancer patients) was 6 of 10 patients, the “Humoral response, Total (IgG-positive patients/patients tested)” value ([4]; 10 prostate cancer patients) was 6/10 and the “IgG reactive to peptide, OD” value ([4]; prostate cancer patient #1) was 0.055 OD. The “IgG reactive to peptide, OD” value ([4]; prostate cancer patient #2) was 0.080 OD, the “IgG reactive to peptide, OD” value ([4]; prostate cancer patient #7) was 0.041 OD and the “IgG reactive to peptide, OD” value ([4]; prostate cancer patient #8) was 0.150 OD. For the same sequence, the “IgG reactive to peptide, OD” value ([4]; prostate cancer patient #9) was 0.089 OD, the “IgG reactive to peptide, OD” value ([4]; prostate cancer patient #10) was 0.067 OD and the “Share of prostate cancer patients with IgG reactive to the peptide detected in plasma” value ([4]; summary statement) was “almost half”. The “Cancer patients in whom the peptide induced peptide-specific CTLs” value [3] was 2 of 10, the IFN-γ production ([3]; patient #11) was 124 pg/mL and the IFN-γ production ([3]; patient #12) was 25 pg/mL. The IFN-γ production ([3]; patient #13) was 0 pg/mL, the IFN-γ production ([3]; patient #14) was 13 pg/mL and the IFN-γ production ([3]; patient #15) was 27 pg/mL. For the same sequence, the IFN-γ production ([3]; patient #16) was 27 pg/mL, the IFN-γ production ([3]; patient #17) was 44 pg/mL and the IFN-γ production ([3]; patient #18) was 13 pg/mL. The IFN-γ production ([3]; patient #19) was 71 pg/mL, the IFN-γ production ([3]; patient #20) was 171 pg/mL and the “Reactivity of peptide-stimulated PBMCs, Total (patients with significant IFN-γ production/patients tested)” value [3, 5] was 2/10.

IFVELVNAL (EZH2 170-178) [EZH2-170] was tested, and the “Humoral response, Total (IgG-positive patients/patients tested)” value ([4]; 10 prostate cancer patients) was 1/10, the “IgG reactive to peptide, OD” value ([4]; prostate cancer patient #8) was 0.043 OD and the “Cancer patients in whom the peptide induced peptide-specific CTLs” value [3] was 1 of 10. It also gave an IFN-γ production ([3]; patient #11) of 10 pg/mL, an IFN-γ production ([3]; patient #12) of 15 pg/mL and an IFN-γ production ([3]; patient #13) of 181 pg/mL. It also gave an IFN-γ production ([3]; patient #14) of 35 pg/mL, an IFN-γ production ([3]; patient #15) of 10 pg/mL and an IFN-γ production ([3]; patient #16) of 30 pg/mL. The IFN-γ production ([3]; patient #17) was 87 pg/mL, the IFN-γ production ([3]; patient #18) was 0 pg/mL and the IFN-γ production ([3]; patient #19) was 16 pg/mL. For the same sequence, the IFN-γ production ([3]; patient #20) was 82 pg/mL and the “Reactivity of peptide-stimulated PBMCs, Total (patients with significant IFN-γ production/patients tested)” value [3, 5] was 1/10.

With KYMCSFLFNL (EZH2 660-669) [EZH2-660] the “Humoral response, Total (IgG-positive patients/patients tested)” value ([4]; 10 prostate cancer patients) was 2/10, the “IgG reactive to peptide, OD” value ([4]; prostate cancer patient #2) was 0.105 OD and the “IgG reactive to peptide, OD” value ([4]; prostate cancer patient #10) was 0.058 OD.

For KYDCFLHPF [EZH2-291], the “Cytotoxicity against LNCaP-A24 cells on addition of anti-class I or anti-CD8 mAb” value (LNCaP-A24 cells [1]) was “significantly inhibited”, the “Cytotoxicity of peptide-stimulated PBMCs / induction of HLA-A24-restricted prostate cancer-reactive CTLs” value (LNCaP-A24 cells [2]) was “efficiently induce HLA-A24-restricted and prostate cancer-reactive CTLs” and the “Cytotoxicity of peptide-stimulated PBMCs / induction of HLA-A24-restricted prostate cancer-reactive CTLs” value (LNCaP-A24 cells [2]; listed as EZH2 291–299) was “efficiently induced HLA-A24-restricted and prostate cancer-reactive CTLs”.

For NFMVEDETVL (EZH2 119-128) [EZH2-119], the “Humoral response, Total (IgG-positive patients/patients tested)” value ([4]; 10 prostate cancer patients) was 1/10 and the “IgG reactive to peptide, OD” value ([4]; prostate cancer patient #8) was 0.047 OD.

For DYRYSQADAL (EZH2 725-734) [EZH2-725], the “Humoral response, Total (IgG-positive patients/patients tested)” value ([4]; 10 prostate cancer patients) was 2/10, the “IgG reactive to peptide, OD” value ([4]; prostate cancer patient #2) was 0.049 OD and the “IgG reactive to peptide, OD” value ([4]; prostate cancer patient #8) was 0.056 OD.

DFPTQVIPL (EZH2 90-98) [EZH2-90] was tested, and the “Humoral response, Total (IgG-positive patients/patients tested)” value ([4]; 10 prostate cancer patients) was 0/10.
